Laboratory results: DBAASP
In brackets after ≈: the same amount, converted by molar mass. One block for each molecule: values may come before it.

What was measured:
Assay in all cases: ≥ marks a high value that may be exact or a test limit, other limits are often not marked, values filed in µg/mL are converted to µM
[1] = system: Streptococcus sobrinus ATCC 33478
[2] = system: Streptococcus sanguinis NY101
[3] = system: Staphylococcus aureus
[4] = system: Enterococcus faecalis
[5] = system: Streptococcus mutans UA159
[6] = system: Pseudomonas aeruginosa PAK
[7] = system: Escherichia coli W3110
[8] = system: Escherichia coli 45849
[9] = system: Micrococcus luteus ATCC 10240
[10] = system: Escherichia coli D31
[11] = system: Agrobacterium tumefaciens ATCC 15955
[12] = system: Escherichia coli BL21AI
[13] = system: Salmonella enterica subsp. enterica serovar Typhimurium ATCC 700408
[14] = system: Escherichia coli DSM 1103
[15] = system: Escherichia coli DC2
[16] = system: Klebsiella pneumoniae 123132
[17] = system: Klebsiella pneumoniae DSM 681
[18] = system: Salmonella enterica subsp. enterica serovar Typhi S5
[19] = system: Klebsiella pneumoniae K6 ATCC 700603
[20] = system: Acinetobacter baumannii
[21] = system: Acinetobacter baumannii KCTC 2508
[22] = system: Bacillus subtilis ATCC 6633
[23] = system: Escherichia coli ATCC 33694
[24] = system: Pseudomonas aeruginosa ATCC 27853
[25] = system: Staphylococcus epidermidis
[26] = system: Stenotrophomonas maltophilia ATCC 13637
[27] = system: Proteus mirabilis
[28] = system: Staphylococcus aureus ATCC 25923
[29] = system: Streptococcus pyogenes
[30] = system: Escherichia coli ATCC 25922
[31] = system: Candida albicans ATCC 90112
[32] = system: Micrococcus luteus Ml11
[33] = system: Escherichia coli D21
[34] = system: Bacillus megaterium Bm11
[35] = system: Proteus vulgaris OX19 ATCC 6380
[36] = system: Shigella flexneri ATCC 203
[37] = system: Pseudomonas aeruginosa OT97
[38] = system: Staphylococcus aureus JC-1
[39] = system: Fusarium haematococcum 160.2.2
[40] = system: Neurospora crassa CBS 327-54

MIC [1]: ≥ 101 µM
MIC [2]: 25.3 µM (≈ 62.5 µg/mL)
MIC [3]: 50.6 µM (≈ 125 µg/mL)
MIC [4]: 25.3 µM (≈ 62.5 µg/mL)
MIC [5]: 6.48 µM (≈ 16 µg/mL)
MIC [6]: ≥ 50.6 µM
MIC [7]: ≥ 50.6 µM
Structure (SMILES): CC[C@H](C)[C@H](NC(=O)[C@H](Cc1ccccc1)NC(=O)[C@H](Cc1cnc[nH]1)NC(=O)[C@H](CCCCN)NC(=O)[C@@H](NC(=O)[C@H](Cc1ccccc1)NC(=O)[C@@H](NC(=O)[C@H](C)NC(=O)[C@H](CO)NC(=O)[C@H](Cc1ccccc1)NC(=O)[C@H](Cc1cnc[nH]1)NC(=O)[C@H](CC(C)C)NC(=O)[C@H](Cc1cnc[nH]1)NC(=O)[C@H](Cc1ccccc1)NC(=O)[C@H](Cc1cnc[nH]1)NC(=O)[C@@H](N)Cc1ccccc1)[C@@H](C)O)[C@@H](C)CC)C(=O)N[C@@H](Cc1cnc[nH]1)C(=O)N[C@@H](CCCN=C(N)N)C(=O)N[C@@H](Cc1ccccc1)C(N)=O [FHFHLHFSATFIKHFIHRF]

MIC [8]: 7.59 µM (≈ 16 µg/mL)
MIC [9]: 0.925 µM (≈ 1.95 µg/mL)
MIC [10]: ≥ 60.7 µM
MIC [11]: 1.23 µM (≈ 2.6 µg/mL)
MIC [12]: 1.85 µM (≈ 3.91 µg/mL)
MIC [13]: 1.9 µM (≈ 4 µg/mL)
MIC [14]: 1.85 µM (≈ 3.91 µg/mL)
MIC [15]: 3.7 µM (≈ 7.81 µg/mL)
MIC [16]: 15.2 µM (≈ 32 µg/mL)
MIC [17]: 7.41 µM (≈ 15.6 µg/mL)
MIC [18]: 15.2 µM (≈ 32 µg/mL)
MIC [19]: ≥ 60.7 µM
Structure (SMILES): CC[C@H](C)[C@H](NC(=O)[C@H](CCCN=C(N)N)NC(=O)[C@@H]1CCCN1C(=O)[C@H](Cc1cnc[nH]1)NC(=O)[C@@H]1CCCN1C(=O)[C@@H]1CCCN1C(=O)[C@H](CCCN=C(N)N)NC(=O)[C@@H]1CCCN1C(=O)[C@H](CCC(N)=O)NC(=O)[C@@H]1CCCN1C(=O)[C@H](CC(C)C)NC(=O)[C@H](Cc1ccc(O)cc1)NC(=O)[C@@H](NC(=O)[C@@H]1CCCN1C(=O)[C@H](CCCN=C(N)N)NC(=O)[C@H](CC(N)=O)NC(=O)[C@H](CC(N)=O)NC(=O)CN)C(C)C)C(N)=O [GNNRPVYLPQPRPPHPRI]

MIC [20]: 4.42 µM (≈ 9.71 µg/mL)
MIC [21]: 3.12 µM (≈ 6.86 µg/mL)
MIC [22]: 1.1 µM (≈ 2.43 µg/mL)
MIC [23]: 8.84 µM (≈ 19.4 µg/mL)
Structure (SMILES): CC[C@H](C)[C@H](NC(=O)CNC(=O)[C@@H](NC(=O)[C@H](CCCCN)NC(=O)[C@H](CCCCN)NC(=O)[C@H](Cc1ccccc1)NC(=O)[C@H](CC(C)C)NC(=O)[C@H](CCCCN)NC(=O)[C@H](Cc1c[nH]c2ccccc12)NC(=O)[C@@H](N)CCCCN)[C@@H](C)CC)C(=O)NCC(=O)N[C@@H](C)C(=O)N[C@H](C(=O)N[C@@H](CC(C)C)C(=O)N[C@@H](CCCCN)C(=O)N[C@H](C(=O)N[C@@H](CC(C)C)C(=O)N[C@H](C(=O)N[C@H](C(=O)NCC(N)=O)[C@@H](C)O)[C@@H](C)O)C(C)C)C(C)C [KWKLFKKIGIGAVLKVLTTG]

MIC [24]: 30 µM (≈ 49.4 µg/mL)
MIC [9]: 30 µM (≈ 49.4 µg/mL)
MIC [25]: 30 µM (≈ 49.4 µg/mL)
MIC [26]: 15 µM (≈ 24.7 µg/mL)
MIC [27]: ≥ 60 µM
MIC [28]: > 60 µM
MIC [29]: 30 µM (≈ 49.4 µg/mL)
MIC [22]: 30 µM (≈ 49.4 µg/mL)
MIC [30]: 30 µM (≈ 49.4 µg/mL)
MIC [31]: 7.5 µM (≈ 12.3 µg/mL)
Structure (SMILES): CC(C)C[C@H](NC(=O)CNC(=O)[C@H](CCCCN)NC(=O)[C@H](CC(C)C)NC(=O)[C@H](CC(N)=O)NC(=O)[C@@H](N)CC(C)C)C(=O)N[C@@H](Cc1ccccc1)C(=O)N[C@@H](CCCCN)C(=O)N[C@@H](CCCCN)C(=O)N[C@H](C(=O)N[C@@H](C)C(=O)N[C@@H](CO)C(=O)N[C@@H](CC(C)C)C(=O)N[C@@H](CC(C)C)C(=O)N[C@H](C(=O)O)[C@@H](C)O)C(C)C [LNLKGLFKKVASLLT]

MIC [32]: 5.44 µM (≈ 9.99 µg/mL)
MIC [33]: 2.12 µM (≈ 3.9 µg/mL)
MIC [34]: 1.03 µM (≈ 1.9 µg/mL)
MIC [35]: 4.24 µM (≈ 7.8 µg/mL)
MIC [36]: 0.533 µM (≈ 0.98 µg/mL)
MIC [22]: 1.06 µM (≈ 1.95 µg/mL)
MIC [37]: 4.24 µM (≈ 7.8 µg/mL)
MIC [38]: 4.24 µM (≈ 7.8 µg/mL)
Structure (SMILES): CC[C@H](C)[C@H](NC(=O)[C@@H]1CCCN1C(=O)[C@H](CCCN=C(N)N)NC(=O)[C@@H]1CCCN1C(=O)[C@H](CCCN=C(N)N)NC(=O)[C@H](Cc1ccc(O)cc1)NC(=O)[C@H](CC(N)=O)NC(=O)[C@@H]1CCCN1C(=O)[C@H](CCCN=C(N)N)NC(=O)[C@@H]1CCCN1C(=O)[C@@H](N)CCCN=C(N)N)C(=O)N[C@@H](Cc1ccc(O)cc1)C(=O)N[C@@H](CCCN=C(N)N)C(=O)N1CCC[C@H]1C(N)=O [RPRPNYRPRPIYRP]

MIC [39]: 30 µM (≈ 72.1 µg/mL)
MIC [40]: ≥ 100 µM
Structure (SMILES): CC[C@H](C)[C@H](NC(=O)[C@H](CCCN=C(N)N)NC(=O)[C@H](CCC(=O)O)NC(=O)[C@H](CC(=O)O)NC(=O)CNC(=O)[C@H](CCCN=C(N)N)NC(=O)[C@H](CC(C)C)NC(=O)[C@@H](N)[C@@H](C)O)C(=O)N[C@@H](CC(C)C)C(=O)N[C@@H](CO)C(=O)N[C@H](C(=O)N[C@@H](CC(C)C)C(=O)N[C@@H](CCCN=C(N)N)C(=O)N[C@@H](Cc1cnc[nH]1)C(=O)N[C@@H](CCC(N)=O)C(=O)N[C@@H](CC(N)=O)C(=O)N[C@@H](CC(C)C)C(=O)N[C@@H](CC(C)C)C(=O)N[C@@H](CCCCN)C(=O)N[C@@H](CCC(=O)O)C(=O)O)[C@@H](C)CC [TLRGDERILSILRHQNLLKE]
